{"source": "patent US6534283B1", "about": "“Method for treatment and prevention of physiological shock” (The Regents of the University of California, priority 1999, dated 2003)", "key": {"Human neutrophils (PMNs)": {"tested_on": "Human neutrophils (PMNs)", "test": "Neutrophil activation (pseudopod formation) by pancreatic homogenate prepared with protease inhibitors", "assay_type": "cell-based", "settings": "for ability of the homogenate to stimulate neutrophil activation: pancreas homogenized in the presence of protease inhibitor", "description": "The organs were immediately washed in cold 0.25 M sucrose solution, homogenized in Krebs-Henseleit solution (1:3 w/v), and the homogenate was diluted (1:2 v/v Krebs-Henseleit), following the protocol established by Glen and Lefer (Circ. Res., 1971). This homogenate served as the stock solution for all experiments. Aliquots were heated for 2.5 hours at 38° C. with mild stirring and the supernatant collected after centrifugation at 500 g for 10 min. Incubation of tissue homogenates at 38° C. promotes enzymatic activity and enhances production of the cellular activation factors.\nNeutrophils were isolated from venous blood collected from healthy human volunteers in heparinized vacutainer tubes and stored at 4° C. Human neutrophils (PMNs) were used in these studies after it was shown in pilot studies that the rat organ extracts stimulated activation of both human and rat neutrophils to a similar degree.\nNeutrophil isolation was carried out using gravity sedimentation to remove erythrocytes and centrifugation through a Percoll gradient. Isolated neutrophils were resuspended in PBS to achieve a count of 10^6 neutrophils/ml. 100 μl aliquots of suspended neutrophils were added to 100 μl of activating agent (e.g. tissue homogenate) or PBS as a control, and incubated for 10 minutes at 27° C. After incubation, 100 μl of 3% glutaraldehyde (Fisher Scientific, Fair Lawn, N.J.) was added to fix the cells. 100 μl of crystal violet in phosphate (pH: 7.4) buffer was added to label leukocyte nuclei for identification on wet mount preparations. Freely suspended neutrophils with pseudopodia were identified by their segmented nuclei and by the presence of cytoplasmic granules. One hundred neutrophils were counted per slide. Cells having pseudopod projections greater than about 1 μm were considered positive.\nTo determine if pancreatic homogenates could induce a “systemic response” in vitro, non-pancreatic tissues were incubated with substimulatory quantities of pancreatic homogenate (100 μl pancreatic homogenate/3 ml organ homogenate). […] As the pancreas produces a number of digestive enzymes, including proteases, a cocktail of trypsin and chymotrypsin was added to non-pancreatic tissue and the neutrophil activation assays were performed."}, "rats [1]": {"tested_on": "rats", "test": "Shock induced by bolus injection of pancreatic homogenate, with or without ANGD infusion", "assay_type": "in vivo, rat", "settings": "one hour i.v. pretreatment 3.3 mg/kg body wt per hour, then pancreatic homogenate bolus", "protocol": "Rats were cannulated via the femoral arteries and veins under general anesthesia (pentobarbital, 50 mg/kg i.m.) and saline, without or with ANGD, was infused to examine the response of the circulation after administration of pancreatic homogenate. The arterial catheter served to record mean arterial pressure (MAP) and heart rate. […] No heparin was injected other than that needed to maintain open catheters (10 U/ml Plasma-Lyte, Travenol Laboratory Inc., Deerfield, Ill.). After a one hour pretreatment, a bolus injection of filtered (0.78 μm vacuum filter, Millipore) stock pancreatic homogenate was administered (2 ml). The extent to which pancreatic homogenate induced hypotension and circulatory shock, both in the presence and absence of ANGD, was examined."}, "rats [2]": {"tested_on": "rats", "test": "Splanchnic ischemia/reperfusion shock with perfusion of the lumen of the small intestine", "assay_type": "in vivo, rat", "description": "(§1) The small intestine of rats was perfused at a constant flow rate (4.0 ml/min) with 45 ml of rat intestinal fluid supplemented with 5 ml of 5% glucose (IF) or 50 ml of saline with 0.1% glucose (SAL) or with ANDG at a final concentration of 0.2 mg/ml. The perfusate was recirculated continuously throughout the entire procedure. After 15 min of intestinal perfusion, the animals were subjected to […]. of splanchnic ischemia, which was confirmed by cyanotic organ discoloration and loss of the pressure pulsation in the mesentery.\nArterial and portal venous blood (0.3 ml each) were sampled before ischemia, after 90 min of ischemia, and 30, 60, and 120 min postreperfusion. The samples were analyzed for leukocyte count and activation based on crystal violet staining. In the preischemic period, the leukocyte counts were the same in all three groups. In the IF And SAL groups, the leukocyte count in arterial blood started to decrease after ischemia and reached its lowest value 120 min after reperfusion. […] Similarly, ANGD was able to inhibit the activation of circulating neutrophils (15.0±1.6%) as compared to both IF (23.3±1.0%, p<0.05) and SAL (25.0±1.6%, p<0.05) at 120 minutes post-perfusion.\nMyeloperoxidase activity was used as a marker for assessment of leukocyte infiltration into the small intestine, liver, and lung. Tissue myeloperoxidase levels were determined by a spectrophotometric method. At 120 minutes of reperfusion, myeloperoxidase levels were increased in intestine (36.1±3.9 U/g to 309.3±51.0 U/g), liver (0.4±0.1 U/g to 2.6±0.3 U/g), and lung (29.0±4.4 U/g to 199.2±33.9 U/g). This is an early indicator of leukocyte infiltration and organ failure in shock.\nThickness of the intestinal mucosa was used as an indicator of damage to the intestine. A sample of small intestine was longitudinally dissected, fixed in 10% buffered formalin, and embedded in paraffin. Five-micrometer sections were made and stained with hematoxylin and eosin and examined at 200× magnification. Severity of intestinal injury was estimated by the length between the tip of the villi and the musculus mucosae, a measure of mucosal layer thickness. In each specimen, the measurement was made at 10 randomly selected locations and averaged. Intestinal perfusion of protease inhibitor served to maintain mucosal thickness and to reduce intestinal injury (IF 252.0±34.0 […]).\nThe level of edematous lung injury was assayed by a pulmonary wet/dry ratio. Lung lobes were harvested, wet weight was determined and samples were dried at 70° C. for 72 hours. The dried tissue was weighed, and the ratio of wet to dried weight was calculated. Edema was much greater in the IF (5.65±0.33) and SAL (4.88±0.39) groups as compared to the ANGD (3.66±0.27) group which was similar to non-shock controls."}, "serine protease": {"tested_on": "serine protease", "test": "Serine protease activity of intestinal fluid during intestinal perfusion and splanchnic ischemia", "assay_type": "in vivo, rat", "settings": "intestinal perfusion 0.2 mg/ml", "description": "as §1\nThe process of shock was monitored by a number of methods in various tissues throughout the body. Intestinal fluid was analyzed for serine protease activity. One milliliter of circulating fluid in the intestine was collected from the reservoir before ischemia and 90 min after ischemia. […] After 90 min of ischemia, the serine protease activity levels in the IF, SAL, and ANGD groups were 5.6±2.3×10^3 units/ml, 3.3±2.3×10^3 units/ml, and 1.2±0.2×10^3 units/ml, respectively. Intestinal perfusion with ANGD kept the serine protease activity lower than in the other two groups (p<0.05, SAL vs. ANGD; p<0.01 ANGD vs. IF and SAL groups)."}}, "data": [{"smiles": "N=C(N)c1ccc2cc(OC(=O)c3ccc(N=C(N)N)cc3)ccc2c1", "note": "[ANGD, 6-amidino-2napthyl p-guanidobenzoate dimethane-sulfate]", "values": [{"measurement": "neutrophil activation", "setting": "Human neutrophils (PMNs); pancreas homogenized in presence of inhibitor, untreated extract 59±10%", "result": "9±12", "unit": "%"}, {"measurement": "ability of the homogenate to stimulate neutrophil activation", "setting": "Human neutrophils (PMNs)", "result": "significantly decreased"}, {"measurement": "death within the 60 minute post-injection observation period", "setting": "rats [1]", "result": "none of these animals died"}, {"measurement": "time for MAP and heart rate to return to normal levels", "setting": "rats [1]", "result": "≤ 20", "unit": "min"}, {"measurement": "myeloperoxidase activity in liver", "setting": "rats [2]; 120 minutes of reperfusion, without inhibitor 2.6±0.3 U/g", "result": "1.0±0.1", "unit": "U/g"}, {"measurement": "myeloperoxidase activity in lung", "setting": "rats [2]; 120 minutes of reperfusion, without inhibitor 199.2±33.9 U/g", "result": "87.0±13.4", "unit": "U/g"}, {"measurement": "myeloperoxidase activity in intestine", "setting": "rats [2]; 120 minutes of reperfusion, without inhibitor 309.3±51.0 U/g", "result": "62.5±19.8", "unit": "U/g"}, {"measurement": "activation of circulating neutrophils", "setting": "rats [2]; 120 minutes post-perfusion, IF 23.3±1.0%, SAL 25.0±1.6%", "result": "15.0±1.6", "unit": "%"}, {"measurement": "pulmonary wet/dry ratio (edematous lung injury)", "setting": "rats [2]; IF 5.65±0.33, SAL 4.88±0.39", "result": "3.66±0.27"}, {"measurement": "leukopenia (leukocyte count in arterial blood)", "setting": "rats [2]; intestinal perfusion 0.2 mg/ml, after ischemia up to 120 min after reperfusion", "result": "completely ameliorated leukopenia"}, {"measurement": "mucosal thickness (tip of the villi to musculus mucosae)", "setting": "rats [2]; small intestine, IF 252.0±34.0", "result": "378 ± 38", "unit": "µm"}, {"measurement": "serine protease activity level in the intestine", "setting": "serine protease; after 90 min of ischemia, IF 5.6±2.3×10^3, SAL 3.3±2.3×10^3", "result": "1.2±0.2×10^3 units/ml"}, {"measurement": "serine protease activity level in the intestine", "setting": "serine protease; before ischemia, IF=5.8±1.8×10^3, SAL=2.0±0.9×10^3", "result": "1.2±0.1×10^3 units/ml"}]}, {"smiles": "CCOC(=O)c1ccc(OC(=O)CCCCCN=C(N)N)cc1.CS(=O)(=O)O", "note": "[FOY, gabaxalate mesilate]", "values": [{"measurement": "ability of the homogenate to stimulate neutrophil activation", "setting": "Human neutrophils (PMNs)", "result": "significantly decreased"}]}, {"smiles": "O=S(=O)(F)Cc1ccccc1", "note": "[PMSF, phenylmethylsulfonylfluoride]", "values": [{"measurement": "ability of the homogenate to stimulate neutrophil activation", "setting": "Human neutrophils (PMNs)", "result": "significantly decreased"}]}]}
